IC50 data for five molecules are collected here from BindingDB's records for patent US12473304 (Bristol-Myers Squibb, 2025).

The test addresses Protein-arginine deiminase type-4 (Homo sapiens, UniProt Q9UM07). Description: RFMS Human PAD4 Functional Assay 1. The method, then:
Reaction volume: 26 μlAssay buffer: 25 mM hepes, pH 7.5, 5 mM NaCl, 1 mM DTT, 0.2 mg/ml BSA, 0.01% CHAPS, 50 μM Calcium, and 5 μM TPENFinal concentrations: 5 nM hPAD4 enzyme, 250 μM BASE, and 0.5% DMSOTotal incubation time: 30 mins compound and enzyme preincubation at 37° C., 90 min enzyme/substrate reaction, 30 min reaction with phenyl glyoxal at 37° C.Stop solution: 40 μl 5% TCA in ACN0.13 μL of compound solution was added to 13 μL of 10 nM PAD4 in assay buffer. After 30 min 13 μl of 500 μM of BAEE was added in 25 mM hepes, pH 7.5, 5 mM NaCl, 1 mM DTT, 0.2 mg/ml BSA, 0.01% CHAPS, 50 μM Calcium, 5 μM TPEN was added and the reaction incubated for 90 min at 37° C. The enzymatic reaction was quenched by addition of 15 μl of 6.1N TCA, 100% Final Concentration is 20%, 35 μl of 8.5 mM phenyl glyoxal (final concentration 4 mM) is then added and the reaction is incubated for 30 min at 37° C.After 30 minutes the plates are spun down to remove all precipitate. The enzyme reaction was quenched with an equal volume of methanol containing internal standard (modified citrulline). Samples were loaded onto the Rapid Fire RF300 system (Agilent) wherein they were first sipped for 1000 ms and then directly loaded to a C18 separations cartridge using a mixture of acetonitrile containing 0.01% formic acid for 3000 ms desalting. The flow rate of the mobile phase was 1.5 ml/min. Once the samples were eluted from the cartridge, a mobile phase of acetonitrile containing 0.01% formic acid was used to move the samples into the mass spectrometer for 4000 ms at a flow rate of 1.25 ml/min/Sciex API5500 triple quadrupole mass spectrometer (Applied Biosystems) equipped with ESI was used to analyze the peptidyl citrulline and internal standard ions.

Protein-arginine deiminase type-4, sequence (Q9UM07 whole entry): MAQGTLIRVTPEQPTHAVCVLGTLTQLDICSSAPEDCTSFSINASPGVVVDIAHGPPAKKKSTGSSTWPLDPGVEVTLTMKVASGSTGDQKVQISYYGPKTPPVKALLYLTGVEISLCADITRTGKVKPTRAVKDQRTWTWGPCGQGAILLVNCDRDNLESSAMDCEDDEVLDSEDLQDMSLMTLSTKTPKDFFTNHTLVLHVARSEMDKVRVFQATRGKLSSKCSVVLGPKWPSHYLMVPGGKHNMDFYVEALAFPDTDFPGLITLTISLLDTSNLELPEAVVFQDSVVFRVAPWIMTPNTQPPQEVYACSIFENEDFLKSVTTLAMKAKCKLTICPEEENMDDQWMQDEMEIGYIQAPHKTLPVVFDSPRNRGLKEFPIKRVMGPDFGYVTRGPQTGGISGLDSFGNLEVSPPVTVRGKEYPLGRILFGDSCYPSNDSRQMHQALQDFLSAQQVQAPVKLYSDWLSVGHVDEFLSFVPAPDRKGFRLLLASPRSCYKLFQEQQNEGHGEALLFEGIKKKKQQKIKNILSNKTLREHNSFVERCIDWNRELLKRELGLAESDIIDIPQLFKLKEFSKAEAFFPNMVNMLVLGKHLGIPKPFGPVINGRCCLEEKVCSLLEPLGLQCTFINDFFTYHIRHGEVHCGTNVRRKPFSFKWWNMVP

Turning to `COc1cc(C(=O)N2CCC[C@@H](N)C2)cn2nc(-c3cc4ccc(-c5cc(F)c(C(N)=O)cc5C)nc4n3CC3CC3)c(C)c12` [US12473304, Example 208], the IC50 was 140 nM.
Consider `Cc1c(-c2cc3ccc(-c4ccc5c(c4)CNC5=O)nc3n2CC2CC2)nn2cc(C(=O)N3CC4CCC3[C@@H]4N)ccc12` (stereo not given in full) [US12473304, Example 64], for which the IC50 was 55 nM.
`COc1cc(C(=O)N2C[C@H](N)C[C@@H](F)C2)cn2nc(-c3cc4ccc(-c5cc(F)c(C(N)=O)cc5C)nc4n3CC3CC3)c(C)c12` [US12473304, Example 207] displayed an IC50 of 150 nM.
For `COc1cc(C(=O)N2CC3CCC2[C@@H]3N)cn2nc(-c3cc4ccc(C(C)(C)O)cc4n3CC3CC3)c(C)c12` (stereo not given in full) [US12473304, Example 97] the value was 30 nM; for `COc1cc(C(=O)N2C[C@H](N)C[C@@H](F)C2)cn2nc(-c3cc4ccc(Cl)nc4n3CC3CC3)c(C)c12` [US12473304, Example 15], 526 nM.

Broadly, the IC50 is the point on the concentration scale where inhibition reaches its midpoint.
